Each structure is given as a SMILES string.

These results are taken from patent publication US11207325B2, “Triazolopyrimidine compounds and uses thereof” (Novartis AG, priority 2014, dated 2021).

The subject of the assay is H3K27 methylation in G401 cell. Kind of assay: ELISA (H3K27 methylation) assay. Format: cell-based. Particulars: Homo sapiens, G-401; ELISA Qualified assay (H3K27 methylation); read-out: (c) IC50 (μM), ELISA Qualified. From the text:
ELISA (H3K27 Methylation) Assay
On the technique in general: An ELISA detects its analyte on a solid surface through an enzyme-linked reagent.

On to `Cc1cc(C2CC2)ncc1-c1cnc(NCc2c(F)ccc3c2CCO3)n2cnnc12` [Example 173, 8-(6-cyclopropyl-4-methylpyridin-3-yl)-N-((5-fluoro-2,3-dihydrobenzofuran-4-yl)methyl)-[1,2,4]triazolo[4,3-c]pyrimidin-5-amine], for which the IC50 (in general, the concentration that gives 50% inhibition) stood at 0.0152 µM.

In the case of `COc1ncc(-c2cnc(NCc3c(F)ccc4c3CCO4)n3cnnc23)cn1` [Example 174, N-((5-fluoro-2,3-dihydrobenzofuran-4-yl)methyl)-8-(2-methoxypyrimidin-5-yl)-[1,2,4]triazolo[4,3-c]pyrimidin-5-amine], the IC50 turned out to be 0.0042 µM.

As to `COc1ncc(-c2cnc(NCc3c(F)ccc4c3CCO4)n3cnnc23)c(C)n1` [Example 175, N-((5-fluoro-2,3-dihydrobenzofuran-4-yl)methyl)-8-(2-methoxy-4-methylpyrimidin-5-yl)-[1,2,4]triazolo[4,3-c]pyrimidin-5-amine], the IC50 amounted to 0.0034 µM.

Take `Cc1ncncc1-c1cnc(NCc2c(F)ccc3c2CCO3)n2cnnc12` [Example 176, N-((5-fluoro-2,3-dihydrobenzofuran-4-yl)methyl)-8-(4-methylpyrimidin-5-yl)-[1,2,4]triazolo[4,3-c]pyrimidin-5-amine]: the IC50 was 0.0046 µM.

As for `Cc1nccc(-c2cnc(NCc3c(F)ccc4c3CCO4)n3cnnc23)c1C` [Example 177, 8-(2,3-dimethylpyridin-4-yl)-N-((5-fluoro-2,3-dihydrobenzofuran-4-yl)methyl)-[1,2,4]triazolo[4,3-c]pyrimidin-5-amine], the IC50 worked out at 0.0044 µM.

`Cc1cc(C#N)ccc1-c1cnc(NCc2c(F)ccc3c2CCO3)n2cnnc12` [Example 178, 4-(5-(((5-fluoro-2,3-dihydrobenzofuran-4-yl)methyl)amino)-[1,2,4]triazolo[4,3-c]pyrimidin-8-yl)-3-methylbenzonitrile]: the IC50 was 0.0114 µM.

Take `Cc1nn(C2CC2)c(C)c1-c1cnc(NCc2c(F)ccc3c2CCO3)n2cnnc12` [Example 179, 8-(1-cyclopropyl-3,5-dimethyl-1H-pyrazol-4-yl)-N-((5-fluoro-2,3-dihydrobenzofuran-4-yl)methyl)-[1,2,4]triazolo[4,3-c]pyrimidin-5-amine]: the IC50 is 0.0091 µM.

Take `Cc1c(-c2cnc(NCc3c(F)ccc4c3CCO4)n3cnnc23)ccnc1F` [Example 180, N-((5-fluoro-2,3-dihydrobenzofuran-4-yl)methyl)-8-(2-fluoro-3-methylpyridin-4-yl)-[1,2,4]triazolo[4,3-c]pyrimidin-5-amine]: the IC50 was determined as 0.0124 µM.

Take `Cc1c(-c2cnc(NCc3c(F)ccc4c3CCO4)n3cnnc23)ccnc1C(F)F` [Example 181, 8-(2-(difluoromethyl)-3-methylpyridin-4-yl)-N-((5-fluoro-2,3-dihydrobenzofuran-4-yl)methyl)-[1,2,4]triazolo[4,3-c]pyrimidin-5-amine]: the IC50 worked out at 0.0208 µM.

For `Cc1c(-c2cnc(NCc3c(F)ccc4c3CCO4)n3cnnc23)ccnc1CF` [Example 182, N-((5-fluoro-2,3-dihydrobenzofuran-4-yl)methyl)-8-(2-(fluoromethyl)-3-methylpyridin-4-yl)-[1,2,4]triazolo[4,3-c]pyrimidin-5-amine], the 50% inhibitory concentration (IC50) is 0.0025 µM.

Consider `Cc1cnc(F)cc1-c1cnc(NCc2c(F)ccc3c2CCO3)n2cnnc12` [Example 183, N-((5-fluoro-2,3-dihydrobenzofuran-4-yl)methyl)-8-(2-fluoro-5-methylpyridin-4-yl)-[1,2,4]triazolo[4,3-c]pyrimidin-5-amine], for which the IC50 was 0.0106 µM.

As to `Cc1cnc(C(F)(F)F)cc1-c1cnc(NCc2c(F)ccc3c2CCO3)n2cnnc12` [Example 184, N-((5-fluoro-2,3-dihydrobenzofuran-4-yl)methyl)-8-(5-methyl-2-(trifluoromethyl)pyridin-4-yl)-[1,2,4]triazolo[4,3-c]pyrimidin-5-amine], the IC50 was found to be 0.0777 µM.

For `Fc1ccc2c(c1CNc1ncc(-c3ccnc(C(F)(F)F)c3)c3nncn13)CCO2` [Example 185, N-((5-fluoro-2,3-dihydrobenzofuran-4-yl)methyl)-8-(2-(trifluoromethyl)pyridin-4-yl)-[1,2,4]triazolo[4,3-c]pyrimidin-5-amine], the IC50 stood at 0.0468 µM.

`Cc1nn(C[C@@H](C)O)c(C)c1-c1cnc(NCc2c(F)ccc3c2CCO3)n2cnnc12` [Example 186, (2R)-1-(4-(5-(((5-fluoro-2,3-dihydrobenzofuran-4-yl)methyl)amino)-[1,2,4]triazolo[4,3-c]pyrimidin-8-yl)-3,5-dimethyl-1H-pyrazol-1-yl)propan-2-ol]: the IC50 is 0.0068 µM.

Regarding `Cc1nn(C[C@H](C)O)c(C)c1-c1cnc(NCc2c(F)ccc3c2CCO3)n2cnnc12` [Example 187, (2S)-1-(4-(5-(((5-fluoro-2,3-dihydrobenzofuran-4-yl)methyl)amino)-[1,2,4]triazolo[4,3-c]pyrimidin-8-yl)-3,5-dimethyl-1H-pyrazol-1-yl)propan-2-ol], the IC50 was 0.012 µM.

For `Cc1c(-c2cnc(NCc3c(F)ccc4c3CCO4)n3cnnc23)cnn1C(C)C` [Example 188, N-((5-fluoro-2,3-dihydrobenzofuran-4-yl)methyl)-8-(1-isopropyl-5-methyl-1H-pyrazol-4-yl)-[1,2,4]triazolo[4,3-c]pyrimidin-5-amine], the IC50 is 0.0036 µM.

As for `Cc1c(-c2cnc(NCc3c(F)ccc4c3CCO4)n3cnnc23)cnn1CCO` [Example 189, 2-(4-(5-(((5-fluoro-2,3-dihydrobenzofuran-4-yl)methyl)amino)-[1,2,4]triazolo[4,3-c]pyrimidin-8-yl)-5-methyl-1H-pyrazol-1-yl)ethanol], the IC50 was 0.0052 µM.

For `Cc1nn(CCO)cc1-c1cnc(NCc2c(F)ccc3c2CCO3)n2cnnc12` [Example 190, 2-(4-(5-(((5-fluoro-2,3-dihydrobenzofuran-4-yl)methyl)amino)-[1,2,4]triazolo[4,3-c]pyrimidin-8-yl)-3-methyl-1H-pyrazol-1-yl)ethanol], the IC50 was 0.0025 µM.

As for `Fc1ccc2c(c1CNc1ncc(-c3cncnc3C(F)F)c3nncn13)CCO2` [Example 191, 8-(4-(difluoromethyl)pyrimidin-5-yl)-N-((5-fluoro-2,3-dihydrobenzofuran-4-yl)methyl)-[1,2,4]triazolo[4,3-c]pyrimidin-5-amine], the IC50 was found to be 0.0344 µM.

Regarding `Fc1ccc2c(c1CNc1ncc(-c3ccnn3C3CC3)c3nncn13)CCO2` [Example 192, 8-(1-cyclopropyl-1H-pyrazol-5-yl)-N-((5-fluoro-2,3-dihydrobenzofuran-4-yl)methyl)-[1,2,4]triazolo[4,3-c]pyrimidin-5-amine], the IC50 came out at 0.0104 µM.

As to `FCc1ncccc1-c1cnc(NCc2c(F)ccc3c2CCO3)n2cnnc12` [Example 193, N-((5-fluoro-2,3-dihydrobenzofuran-4-yl)methyl)-8-(2-(fluoromethyl)pyridin-3-yl)-[1,2,4]triazolo[4,3-c]pyrimidin-5-amine], the IC50 amounted to 0.0054 µM.

As to `Cc1cc(-c2cnc(NCc3c(F)ccc4c3CCO4)n3cnnc23)c(C)cn1` [Example 194, 8-(2,5-dimethylpyridin-4-yl)-N-((5-fluoro-2,3-dihydrobenzofuran-4-yl)methyl)-[1,2,4]triazolo[4,3-c]pyrimidin-5-amine], the IC50 is 0.0241 µM.

Regarding `Cc1nn(C)cc1-c1cnc(NCc2c(F)ccc3c2CCO3)n2cnnc12` [Example 195, 8-(1,3-dimethyl-1H-pyrazol-4-yl)-N-((5-fluoro-2,3-dihydrobenzofuran-4-yl)methyl)-[1,2,4]triazolo[4,3-c]pyrimidin-5-amine], the IC50 was 0.0024 µM.

Take `CCOc1cc(C)c(-c2cnc(NCc3c(F)ccc4c3CCO4)n3cnnc23)cn1` [Example 196, 8-(6-ethoxy-4-methylpyridin-3-yl)-N-((5-fluoro-2,3-dihydrobenzofuran-4-yl)methyl)-[1,2,4]triazolo[4,3-c]pyrimidin-5-amine]: the half-inhibitory concentration (IC50) stood at 0.0263 µM.

In the case of `Cc1cc(OC(F)F)ncc1-c1cnc(NCc2c(F)ccc3c2CCO3)n2cnnc12` [Example 197, 8-(6-(difluoromethoxy)-4-methylpyridin-3-yl)-N-((5-fluoro-2,3-dihydrobenzofuran-4-yl)methyl)-[1,2,4]triazolo[4,3-c]pyrimidin-5-amine], the IC50 came to 0.0149 µM.

Take `Cc1cnc(C(F)F)cc1-c1cnc(NCc2c(F)ccc3c2CCO3)n2cnnc12` [Example 198, 8-(2-(difluoromethyl)-5-methylpyridin-4-yl)-N-((5-fluoro-2,3-dihydrobenzofuran-4-yl)methyl)-[1,2,4]triazolo[4,3-c]pyrimidin-5-amine]: the IC50 was found to be 0.0078 µM.

For the compound `Cc1nc(C(=O)N(C)C)ccc1-c1cnc(NCc2c(F)ccc3c2CCO3)n2cnnc12` [Example 199, 5-(5-(((5-fluoro-2,3-dihydrobenzofuran-4-yl)methyl)amino)-[1,2,4]triazolo[4,3-c]pyrimidin-8-yl)-N,N,6-trimethylpicolinamide], the IC50 amounted to 0.005 µM.

As to `Cn1cc(-c2cnc(NCc3c(F)ccc4c3CCO4)n3cnnc23)c(C(F)F)n1` [Example 200, 8-(3-(difluoromethyl)-1-methyl-1H-pyrazol-4-yl)-N-((5-fluoro-2,3-dihydrobenzofuran-4-yl)methyl)-[1,2,4]triazolo[4,3-c]pyrimidin-5-amine], the IC50 stood at 0.003 µM.

In the case of `Cc1ccc(-c2cnc(NCc3c(F)ccc4c3CCO4)n3cnnc23)c(C(F)F)n1` [Example 201, 8-(2-(difluoromethyl)-6-methylpyridin-3-yl)-N-((5-fluoro-2,3-dihydrobenzofuran-4-yl)methyl)-[1,2,4]triazolo[4,3-c]pyrimidin-5-amine], the IC50 amounted to 0.0036 µM.

For the compound `Fc1ccc2c(c1CNc1ncc(-c3ccnnc3)c3nncn13)CCO2` [Example 202, N-((5-fluoro-2,3-dihydrobenzofuran-4-yl)methyl)-8-(pyridazin-4-yl)-[1,2,4]triazolo[4,3-c]pyrimidin-5-amine], the IC50 turned out to be 0.0206 µM.

With `Cc1c(-c2cnc(NCc3c(F)ccc4c3CCO4)n3cnnc23)ccc[n+]1[O-]` [Example 204, 3-(5-(((5-fluoro-2,3-dihydrobenzofuran-4-yl)methyl)amino)-[1,2,4]triazolo[4,3-c]pyrimidin-8-yl)-2-methylpyridine 1-oxide], the IC50 came to 0.0103 µM.
